Data taken from patent US9441012B2, “Fluorinated epoxyketone-based compounds and uses thereof as proteasome inhibitors” (FLUORINOV PHARMA INC., priority 2012, dated 2016).

What was measured:
Experiment in all cases: NCI 60 human tumor cell line screen (SRB)
Type in all cases: cell-based
MALME-3M = MALME-3M (Melanoma); 48 h
From the text: (§1) Representative compounds of Formula I were screened using the National Cancer Institute (NCI) screening panel, which consists of a panel of 60 different human tumor cell lines, representing leukemia [CCRF-CEM, HL-60 (TB), K-562, MOLT-4, SR], melanoma [LOX IMVI, MALME-3M, M14, SMDA-MB-435, SK-MEL-2, SK-MEL-28, SK-MEL-5, UACC-257 and UACC-62] and cancers of the lung [A549/ATCC, EKVX, HOP-62, HOP-93, NCI-H226, NCI-H23, NCI-H322M, NCI-H460], colon [COLO 205, HCT-116, HCT-15, HT29, KM12, SW-620], brain [SF-268, SF-295, SF-539, SNB-19, SNB-75, U251], ovary [IGROV1, OVCAR-3, OVCAR-4, OVCAR-5, OVCAR-8, NCI/ADR-RES, SK-OV-3], breast [MCF7, MDA-MB-231, BT-549, T-47D, MDA-MB-468], prostate [PC-3, DU-145], and renal[786-0, A498, ACHN, CAKI-1, RXF-393, SN12C, TK-10, UO-31] cancers.
(§2) After 24 h, two plates of each cell line are fixed in situ with TCA, to represent a measurement of the cell population for each cell line at the time of drug addition (Tz). Experimental drugs are solubilised in dimethyl sulfoxide at 400-fold the desired final maximum test concentration and stored frozen prior to use. At the time of drug addition, an aliquot of frozen concentrate is thawed and diluted to twice the desired final maximum test concentration with complete medium containing 50 μg/ml gentamicin. Additional four, 10-fold or ½ log serial dilutions are made to provide a total of five drug concentrations plus control. Aliquots of 100 μl of these different drug dilutions are added to the appropriate microtiter wells already containing 100 μl of medium, resulting in the required final drug concentrations.
(§3) Following drug addition, the plates are incubated for an additional 48 h at 37° C., 5% CO2, 95% air, and 100% relative humidity. For adherent cells, the assay is terminated by the addition of cold TCA (trichloroacetic acid). Cells are fixed in situ by the gentle addition of 50 μl of cold 50% (w/v) TCA (final concentration, 10% TCA) and incubated for 60 minutes at 4° C. The supernatant is discarded, and the plates are washed five times with tap water and air dried. Sulforhodamine B (SRB) solution (100 μl) at 0.4% (w/v) in 1% acetic acid is added to each well, and plates are incubated for 10 minutes at room temperature. After staining, unbound dye is removed by washing five times with 1% acetic acid and the plates are air dried. Bound stain is subsequently solubilised with 10 mM trizma base, and the absorbance is read on an automated plate reader at a wavelength of 515 nm. For suspension cells, the methodology is the same except that the assay is terminated by fixing settled cells at the bottom of the wells by gently adding 50 μl of 80% TCA (final concentration, 16% TCA). Using the seven absorbance measurements [time zero, (Tz), control growth, (C), and test growth in the presence of drug at the five concentration levels (Ti)], the percentage growth is calculated at each of the drug concentration levels. Percentage growth inhibition is calculated as: [(Ti−Tz)/(C−Tz)]×100 for concentrations in which Ti>/=Tz and [(Ti−Tz)/Tz]×100 for concentrations in which Ti<Tz.
(§4) Three dose response parameters are calculated for each experimental agent. Growth inhibition of 50% (GI50) is calculated from [(Ti−Tz)/(C−Tz)]100=50, which is the drug concentration resulting in a 50% reduction in the net protein increase (as measured by SRB staining) in control cells during the drug incubation. The drug concentration resulting in total growth inhibition (TGI) is calculated from Ti=Tz. The LC50 (concentration of drug resulting in a 50% reduction in the measured protein at the end of the drug treatment as compared to that at the beginning) indicating a net loss of cells following treatment is calculated from [(Ti−Tz)/Tz]×100=−50. Values are calculated for each of these three parameters if the level of activity is reached. However, if the effect is not reached or is exceeded, the value for that parameter is expressed as greater or less than the maximum or minimum concentration tested.

M14 = M14 (Melanoma); 48 h
From the text: as §1, §2, §3, §4

SF-268 = SF-268 (CNS Cancer); 48 h
From the text: as §1, §2, §3, §4

UACC-62 = UACC-62 (Melanoma); 48 h
From the text: as §1, §2, §3, §4

BT-549 = BT-549 (Breast Cancer); 48 h
From the text: as §1, §2, §3, §4

MDA-MB-468 = MDA-MB-468 (Breast Cancer); 48 h
From the text: as §1, §2, §3, §4

NCI-H226 = NCI-H226 (Non-Small Cell Lung Cancer); 48 h
From the text: as §1, §2, §3, §4

SF-539 = SF-539 (CNS Cancer); 48 h
From the text: as §1, §2, §3, §4

HT29 = HT29 (Colon Cancer); 48 h
From the text: as §1, §2, §3, §4

SK-MEL-5 = SK-MEL-5 (Melanoma); 48 h
From the text: as §1, §2, §3, §4

MDA-MB-435 = MDA-MB-435 (Melanoma); 48 h
From the text: as §1, §2, §3, §4

RPMI-8226 = RPMI-8226 (Leukemia); 48 h
From the text: as §1, §2, §3, §4

| Compound | Log10GI50 (MALME-3M) | Log10LC50 (MALME-3M) | Log10TGI50 (MALME-3M) | Log10GI50 (M14) | Log10LC50 (M14) | Log10TGI50 (M14) | Log10GI50 (SF-268) | Log10LC50 (SF-268) | Log10TGI50 (SF-268) | Log10GI50 (UACC-62) | Log10LC50 (UACC-62) | Log10TGI50 (UACC-62) | Log10GI50 (BT-549) | Log10LC50 (BT-549) | Log10TGI50 (BT-549) | Log10GI50 (MDA-MB-468) | Log10LC50 (MDA-MB-468) | Log10TGI50 (MDA-MB-468) | Log10GI50 (NCI-H226) | Log10LC50 (NCI-H226) | other results |
| --- | --- | --- | --- | --- | --- | --- | --- | --- | --- | --- | --- | --- | --- | --- | --- | --- | --- | --- | --- | --- | --- |
| C[C@]1(C(=O)[C@H](Cc2ccccc2)NC(=O)[C@H](COC(F)F)NC(=O)[C@H](COC(F)F)NC(=O)CN2CCOCC2)CO1 [Example 26, (S)-N-{(S)-1-[(S)-1-Benzyl-2-((R)-2-methyl-oxiranyl)-2-oxo-ethylcarbamoyl]-2-difluoromethoxyethyl}-3-difluoromethoxy-2-(2-morpholin-4-yl-acetylamino)-propio-namide] | −7.51 | >−4.00 | −6.64 | −7.48 | >−4.00 | −6.71 | −7.60 | >−4.00 | −7.14 | −7.35 | −4.58 | −6.63 | −7.73 | −7.05 | −7.39 | −7.54 | >−4.00 | −6.96 | −7.77 | −7.10 | Log10TGI50 (NCI-H226): −7.43; Log10GI50 (SF-539): −7.63; Log10LC50 (SF-539): −6.48; Log10TGI50 (SF-539): −7.26; Log10GI50 (HT29): −7.45; Log10LC50 (HT29): >−4.00; Log10TGI50 (HT29): −5.84; Log10GI50 (SK-MEL-5): −7.60; Log10LC50 (SK-MEL-5): −6.49; Log10TGI50 (SK-MEL-5): −7.17; Log10GI50 (MDA-MB-435): −7.75; Log10LC50 (MDA-MB-435): −7.10; Log10TGI50 (MDA-MB-435): −7.42; Log10GI50 (RPMI-8226): −7.52; Log10LC50 (RPMI-8226): >−4.00; Log10TGI50 (RPMI-8226): −7.04 |
| C[C@]1(C(=O)[C@H](Cc2ccccc2)NC(=O)[C@H](Cc2ccccc2)NC(=O)[C@H](COC(F)F)NC(=O)CN2CCOCC2)CO1 [Example 29] | −6.69 | >−4.00 | −6.15 | −7.21 | >−4.00 | −5.85 | −7.27 | >−4.00 | −6.50 | −7.00 | >−4.00 | −6.37 | −7.26 | −4.94 | −6.59 | −6.67 | >−4.00 | −6.10 | −7.64 | −6.51 | Log10TGI50 (NCI-H226): −7.24; Log10GI50 (SF-539): −7.39; Log10LC50 (SF-539): −4.49; Log10TGI50 (SF-539): −6.76; Log10GI50 (HT29): −7.31; Log10LC50 (HT29): >−4.00; Log10TGI50 (HT29): −4.77; Log10GI50 (SK-MEL-5): −7.22; Log10LC50 (SK-MEL-5): −6.20; Log10TGI50 (SK-MEL-5): −6.66; Log10GI50 (MDA-MB-435): −7.63; Log10TGI50 (MDA-MB-435): −7.17; Log10GI50 (RPMI-8226): −7.40; Log10LC50 (RPMI-8226): >−4.00; Log10TGI50 (RPMI-8226): −6.43 |
